Laboratory results reported in ChEMBL document CHEMBL3124825, “Benzimidazole: an emerging scaffold for analgesic and anti-inflammatory agents” (Eur J Med Chem, 2014).

How the values were obtained:
Cannabinoid receptor 1 = Cannabinoid receptor 1 (Homo sapiens, UniProt P21554); assay: Agonist activity at human CB1 receptor
Cannabinoid receptor 2 = Cannabinoid receptor 2 (Homo sapiens, UniProt P34972); assay: Agonist activity at human CB2 receptor
Homo sapiens = species on record: Homo sapiens; assay: Selectivity ratio of Ki for human CB1 receptor to Ki for human CB2 receptor

Cannabinoid receptor 1, sequence (P21554 whole entry): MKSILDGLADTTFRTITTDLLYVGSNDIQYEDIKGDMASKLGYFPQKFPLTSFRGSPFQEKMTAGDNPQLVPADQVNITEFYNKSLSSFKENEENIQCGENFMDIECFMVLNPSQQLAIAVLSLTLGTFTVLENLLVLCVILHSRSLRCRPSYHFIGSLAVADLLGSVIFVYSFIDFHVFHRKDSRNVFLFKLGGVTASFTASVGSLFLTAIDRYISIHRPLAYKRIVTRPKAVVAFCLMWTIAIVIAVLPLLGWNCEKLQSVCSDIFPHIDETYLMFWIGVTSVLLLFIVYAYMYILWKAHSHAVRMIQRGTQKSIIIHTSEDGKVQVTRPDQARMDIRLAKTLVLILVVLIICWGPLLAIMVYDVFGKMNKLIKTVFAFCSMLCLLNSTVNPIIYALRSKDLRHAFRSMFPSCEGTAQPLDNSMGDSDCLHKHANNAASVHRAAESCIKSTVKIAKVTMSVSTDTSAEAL
Cannabinoid receptor 2, sequence (P34972 whole entry): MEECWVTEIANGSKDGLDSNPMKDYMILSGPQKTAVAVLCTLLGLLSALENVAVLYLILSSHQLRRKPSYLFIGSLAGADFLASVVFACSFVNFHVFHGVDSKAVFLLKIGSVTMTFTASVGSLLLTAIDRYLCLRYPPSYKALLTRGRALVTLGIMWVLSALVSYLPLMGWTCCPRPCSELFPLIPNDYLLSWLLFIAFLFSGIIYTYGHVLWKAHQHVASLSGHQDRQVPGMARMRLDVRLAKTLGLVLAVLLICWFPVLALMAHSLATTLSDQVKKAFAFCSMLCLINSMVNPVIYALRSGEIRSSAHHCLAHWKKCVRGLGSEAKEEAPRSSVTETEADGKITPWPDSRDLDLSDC

Ki (Cannabinoid receptor 1): 3170 nM
Ki (Cannabinoid receptor 2): 3.3 nM
Ratio Ki (Homo sapiens): 970
SMILES: CCOc1ccc(Cc2nc3cc(C(=O)N(C)CC)ccc3n2CCC(C)C)cc1
